Consider 10 compounds from ChEMBL document CHEMBL1201862, “PubChem BioAssay data set” (2004).

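Interpolation was linear, between the two tested concentrations surrounding the appropriate level; five concentrations were tested over 48 hours in 96-well plates. GI50 is the concentration that inhibits growth by half.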 Active and inactive are the calls of the source. Rule as the data show it: active = GI50 up to about 1.1 µM and inactive = higher. Some results are limits rather than exact numbers.

Test systems include A498; ACHN; COLO 205; HCC 2998; HCT-116; HOP-92; MCF7; MDA-MB-231; MDA-MB-435; NCI-H226; NCI-H23; OVCAR-4; RXF 393; SK-MEL-2; SK-MEL-5; SK-OV-3; SN12C; UACC-257; UACC-62; UO-31.
Holding throughout (assay): NCI tumour cell line growth inhibition, 48 h

`Cc1ccc(/C=N/Nc2nncc3ccccc23)s1`: the GI50 is > 100 µM (inactive) with A498; > 100 µM (inactive) in the test on ACHN; > 100 µM (inactive) in the test on COLO 205; > 72.8 µM (inactive) with HCC 2998; 59.6 µM (inactive) in the test on HCT-116; > 100 µM (inactive) in the test with HOP-92. Besides, the GI50 is 19.5 µM (inactive) in the test with MCF7; 33 µM (inactive) with MDA-MB-231; 97.1 µM (inactive) in the test with MDA-MB-435; > 69.2 µM (inactive) in the test with NCI-H226; > 83.8 µM (inactive) in the test with NCI-H23; 26.3 µM (inactive) in the test on OVCAR-4. In addition, the GI50 in the test with RXF 393 is > 100 µM (inactive); in the test on SK-MEL-2, > 95.3 µM (inactive); with SK-MEL-5 it was > 100 µM (inactive); with SK-OV-3, > 84.1 µM (inactive); in the test on SN12C it was > 100 µM (inactive); in the test with UACC-257 it was > 100 µM (inactive). The figures for the GI50 with UACC-62 and with UO-31 were > 52.1 µM (inactive) and > 100 µM (inactive), respectively.

Turning to `NC(Cc1ccccc1)(C(=O)O)C(=O)O`, the GI50 in the test on A498, with ACHN, with COLO 205, with HCC 2998, in the test on HCT-116 and in the test on HOP-92 was > 100 µM (inactive) each time. For the same compound, the GI50 in the test with MCF7, with MDA-MB-231, with MDA-MB-435, in the test with NCI-H226, in the test with NCI-H23 and in the test with OVCAR-4 was > 100 µM (inactive) each time. Also, the GI50 in the test with RXF 393, in the test on SK-MEL-2, in the test with SK-MEL-5, in the test with SK-OV-3, in the test with SN12C and in the test on UACC-257 was > 100 µM (inactive) in each case. The GI50 in the test with UACC-62 and with UO-31 was > 100 µM (inactive) in each case.

For `CCC(C)[C@H](NC(=O)[C@H](Cc1ccccc1)NC(=O)N(CC)c1ccccc1)C(=O)N[C@@H](CC(C)C)C(=O)OC` (stereo not given in full), the GI50 in the test on A498 was > 100 µM (inactive); in the test on ACHN, 25.6 µM (inactive); with COLO 205 it was 60.1 µM (inactive); with HCC 2998, 42.2 µM (inactive); with HCT-116 it was 32.4 µM (inactive); with HOP-92 it was 40.7 µM (inactive). Also, the GI50 in the test with MCF7 was 25.7 µM (inactive); with MDA-MB-231, 27.7 µM (inactive); in the test with MDA-MB-435, 24 µM (inactive); in the test on NCI-H226, 18 µM (inactive); in the test on NCI-H23 it was 31 µM (inactive); in the test on OVCAR-4, 94.4 µM (inactive). For the same compound, the GI50 is 74.1 µM (inactive) in the test on RXF 393; 36.6 µM (inactive) with SK-MEL-2; 26.7 µM (inactive) in the test on SK-MEL-5; > 100 µM (inactive) with SK-OV-3; 38.6 µM (inactive) in the test with SN12C; 24.9 µM (inactive) in the test on UACC-257. The GI50 in the test on UACC-62 was 48 µM (inactive); with UO-31 it was 24.3 µM (inactive).

In the case of `COc1cc2c(cc1OC)C(=O)/C(=C/c1ccc(Cl)cc1)CC2`, the GI50 in the test with A498, in the test on ACHN, in the test on COLO 205, in the test on HCC 2998, in the test on HCT-116 and in the test on HOP-92 was > 10 µM (inactive) throughout. Moreover, the GI50 with MCF7, in the test with MDA-MB-231, with MDA-MB-435, in the test on NCI-H226, in the test with NCI-H23 and in the test with OVCAR-4 was > 10 µM (inactive) each time. The GI50 in the test with RXF 393, in the test with SK-MEL-2, in the test with SK-MEL-5, with SK-OV-3, in the test on SN12C and in the test on UACC-257 was > 10 µM (inactive) throughout. The GI50 in the test with UACC-62 and in the test with UO-31 was > 10 µM (inactive) throughout.

As for `COc1cc2oc(-c3ccc4c(c3)OCO4)c(OC)c(=O)c2c(OC)c1OC`, the GI50 with A498 is 33.7 µM (inactive); in the test on ACHN, 59.4 µM (inactive); with COLO 205, > 100 µM (inactive); in the test with HCC 2998, > 100 µM (inactive); in the test on HCT-116 it was > 100 µM (inactive); in the test on HOP-92 it was 1.35 µM (inactive). Moreover, the GI50 with MCF7 was > 100 µM (inactive); with MDA-MB-231, > 100 µM (inactive); with MDA-MB-435 it was > 100 µM (inactive); in the test on NCI-H226, > 100 µM (inactive); in the test on NCI-H23 it was 39.4 µM (inactive); with OVCAR-4, > 100 µM (inactive). Further, the GI50 in the test with RXF 393 is 32.7 µM (inactive); with SK-MEL-2, > 100 µM (inactive); with SK-MEL-5, 51.5 µM (inactive); in the test on SK-OV-3, 44.7 µM (inactive); with SN12C, > 100 µM (inactive); in the test with UACC-257 it was > 100 µM (inactive). Moreover, the GI50 in the test with UACC-62 and in the test on UO-31 was > 100 µM (inactive) in each case.

Turning to `CC(=O)OC(C)(C)/N=N/c1ccc(Br)cc1`, the GI50 was > 87.5 µM (inactive) in the test on A498; 1.33 µM (inactive) in the test on ACHN; 0.52 µM (active) in the test on COLO 205; 16.6 µM (inactive) in the test on HCC 2998; 0.851 µM (active) in the test with HCT-116; 23.7 µM (inactive) with HOP-92. The GI50 in the test on MCF7 is 0.551 µM (active); with MDA-MB-231, > 76.2 µM (inactive); with MDA-MB-435, 1.08 µM (active); in the test on NCI-H226, 2.96 µM (inactive); in the test on NCI-H23 it was 25.8 µM (inactive); in the test on OVCAR-4 it was 9.18 µM (inactive). Also, the GI50 is 20.6 µM (inactive) in the test on RXF 393; > 85.7 µM (inactive) with SK-MEL-2; 0.209 µM (active) in the test with SK-MEL-5; > 33.9 µM (inactive) with SK-OV-3; 32.7 µM (inactive) in the test on SN12C; 5.45 µM (inactive) in the test on UACC-257. Moreover, the GI50 in the test on UACC-62 was 0.052 µM (active); in the test with UO-31 it was 0.425 µM (active).

For `CC(=O)c1c2c(cc3c1CC1(Cc4cc5c(cc4C1)CCCC5)C3)CCCC2`, the GI50 was 56.6 µM (inactive) in the test with A498; 6.49 µM (inactive) with ACHN; 77.1 µM (inactive) with COLO 205; > 100 µM (inactive) with HCC 2998; > 100 µM (inactive) with HCT-116; > 100 µM (inactive) with HOP-92. Moreover, the GI50 in the test with MCF7 is 19.4 µM (inactive); with MDA-MB-231, > 100 µM (inactive); in the test on MDA-MB-435 it was 16.9 µM (inactive); with NCI-H226, 43.5 µM (inactive); in the test with NCI-H23 it was 68.5 µM (inactive); with OVCAR-4 it was 8.39 µM (inactive). Moreover, the GI50 in the test with RXF 393 is > 100 µM (inactive); with SK-MEL-2, 18.8 µM (inactive); in the test with SK-MEL-5, 10.3 µM (inactive); in the test with SK-OV-3, > 100 µM (inactive); in the test on SN12C it was > 100 µM (inactive); in the test with UACC-257, 13 µM (inactive). Also, the GI50 in the test on UACC-62 was > 100 µM (inactive); with UO-31, 0.438 µM (active).

Take `Nc1cccc(C2CCCc3c2[nH]c2ccccc32)c1` (stereo not given): the GI50 in the test with A498 was 15 µM (inactive); in the test with ACHN, 25 µM (inactive); in the test with COLO 205, 19.8 µM (inactive); in the test on HCC 2998, 22.6 µM (inactive); in the test with HCT-116, 13.4 µM (inactive); in the test on HOP-92, 16.9 µM (inactive). The GI50 was 21.8 µM (inactive) with MCF7; 15.8 µM (inactive) in the test with MDA-MB-231; 17.3 µM (inactive) in the test on MDA-MB-435; 25.7 µM (inactive) with NCI-H226; 19.1 µM (inactive) in the test on NCI-H23; 25.5 µM (inactive) in the test on OVCAR-4. For the same compound, the GI50 in the test with RXF 393 is 15.3 µM (inactive); with SK-MEL-2, 17.5 µM (inactive); with SK-MEL-5, 17.4 µM (inactive); with SK-OV-3 it was 23.9 µM (inactive); with SN12C, 17 µM (inactive); in the test with UACC-257, 23.9 µM (inactive). Besides, the GI50 with UACC-62 was 15.6 µM (inactive); with UO-31, 26 µM (inactive).

On to `CCOc1cc(NC(C)=O)ccc1C(=O)NNC(=O)c1ccccc1OC(C)=O`, for which the GI50 in the test on A498 was 16.1 µM (inactive); in the test with ACHN, 3.79 µM (inactive); with COLO 205, 21.5 µM (inactive); in the test with HCC 2998, 4.95 µM (inactive); in the test on HCT-116 it was 3.59 µM (inactive); with HOP-92, 29.9 µM (inactive). The GI50 was 6.07 µM (inactive) with MCF7; 4.42 µM (inactive) with MDA-MB-231; 15 µM (inactive) with MDA-MB-435; 5.19 µM (inactive) in the test with NCI-H226; 18 µM (inactive) with NCI-H23; 4.32 µM (inactive) in the test on OVCAR-4. Also, the GI50 is 3.41 µM (inactive) with RXF 393; 24.3 µM (inactive) with SK-MEL-2; 5.78 µM (inactive) in the test on SK-MEL-5; 11.8 µM (inactive) in the test on SK-OV-3; 5.24 µM (inactive) in the test with SN12C; 4.92 µM (inactive) with UACC-257. The GI50 is 8.36 µM (inactive) in the test on UACC-62 and 3.86 µM (inactive) with UO-31.

On to `O=C(COc1ccc(OCC(=O)N2C(=O)CN(c3ccccc3)C2=S)cc1)N1C(=O)CN(c2ccccc2)C1=S`, for which the GI50 is > 56.5 µM (inactive) in the test with A498; > 53.3 µM (inactive) with ACHN; > 100 µM (inactive) in the test on COLO 205; > 58.5 µM (inactive) in the test on HCC 2998; > 61.4 µM (inactive) in the test with HCT-116; > 53.2 µM (inactive) with HOP-92. Besides, the GI50 is > 54.3 µM (inactive) in the test with MCF7; > 50.1 µM (inactive) with MDA-MB-231; > 55.3 µM (inactive) in the test with MDA-MB-435; > 100 µM (inactive) in the test with NCI-H226; > 56.9 µM (inactive) in the test on NCI-H23; 31.5 µM (inactive) in the test with OVCAR-4. Also, the GI50 in the test with RXF 393 was 55.8 µM (inactive); in the test with SK-MEL-2, > 51.4 µM (inactive); in the test with SK-MEL-5, > 25 µM (inactive); with SK-OV-3, > 54.3 µM (inactive); in the test on SN12C, > 59.2 µM (inactive); in the test on UACC-257 it was > 54.7 µM (inactive). For the same compound, the figures for the GI50 in the test on UACC-62 and in the test on UO-31 were > 56.1 µM (inactive) and > 56.6 µM (inactive), respectively.
